According to paper PMC6792352, “Limited Chemical Structural Diversity Found to Modulate Thyroid Hormone Receptor in the Tox21 Chemical Library” (Environmental Health Perspectives, 2019):
Where a name gives a salt, the structure may show the parent alone.

Test: in vitro
Conditions: rat, gh3-tre-luc cells, AC50 (uM) modified / 1000
For `CC(=O)Oc1cc(C(C)C)c(OCCN(C)C)cc1C` [Moxisylyte hydrochloride], the CC50 at 24 h was over 20 µM.
With `CC(C)(O)C(=O)c1ccccc1` [2-Hydroxy-2-methylpropiophenone] the CC50 at 24 h was over 90 µM.
For `CCC(C)O` (stereo not drawn) [2-Butanol], the CC50 at 24 h was over 90 µM.
Work on `CC(C)(C)c1cc(Cc2cc(C(C)(C)C)c(O)c(C(C)(C)C)c2)cc(C(C)(C)C)c1O` [4,4'-Methylenebis(2,6-di-t-butylphenol)] yielded a CC50 at 24 h of over 90 µM.
Work on `CCCCCCCCCCCC(=O)OCC` [Ethyl dodecanoate] yielded a CC50 at 24 h of over 90 µM.
`CCNC(=O)/C=C/c1cccc(Br)c1` [Cinromide] gave a CC50 at 24 h of over 50 µM.
With `Cn1sccc1=O` [2-Methyl-4-isothiazolin-3-one hydrochloride] the CC50 at 24 h was 30.8 µM.
In the case of `CCCCC(=O)O` [Pentanoic acid], the CC50 at 24 h is reported as over 90 µM.
For `NS(=O)(=O)c1cc2c(cc1Cl)N=C(CSCc1ccccc1)NS2(=O)=O` [Benzthiazide], the CC50 at 24 h was over 20 µM.
`CC(C)(CO)[N+](=O)[O-]` [2-Methyl-2-nitro-1-propanol] showed a CC50 at 24 h of over 90 µM.
`CCN1CCOCC1` [N-Ethylmorpholine] gave a CC50 at 24 h of over 90 µM.
For `COCC(C)O` (stereo not drawn) [1-Methoxy-2-propanol], the CC50 at 24 h was over 90 µM.
For `CO[C@H](C(=O)[C@@H](O)[C@@H](C)O)[C@@H]1Cc2cc3cc(O[C@H]4C[C@@H](O[C@H]5C[C@@H](O)[C@H](O)[C@@H](C)O5)[C@H](O)[C@@H](C)O4)c(C)c(O)c3c(O)c2C(=O)[C@H]1O[C@H]1C[C@@H](O[C@H]2C[C@@H](O[C@H]3C[C@](C)(O)[C@H](O)[C@@H](C)O3)[C@@H](O)[C@@H](C)O2)[C@H](O)[C@@H](C)O1` [Plicamycin], the CC50 at 24 h was 0.413 µM.
`CNC(=O)O/N=C/C(C)(C)SC` [Aldicarb] gave a CC50 at 24 h of over 90 µM.
Molecule `Nc1ccc(C(=O)Oc2ccccc2)c(O)c1` [Phenyl 4-aminosalicylate] has a CC50 at 24 h of over 50 µM.
Work on `CCCCc1oc2ccc(NS(C)(=O)=O)cc2c1C(=O)c1ccc(OCCCN(CCCC)CCCC)cc1` [Dronedarone] yielded a CC50 at 24 h of 9.94 µM.
Work on `Nc1nc(CC(=O)O)cs1` [2-Amino-4-thiazoleacetic acid] yielded a CC50 at 24 h of over 90 µM.
Work on `CC[C@H]1C[C@@H]2C[C@H]3c4[nH]c5ccc(OC)cc5c4CCN(C2)[C@@H]13` [Ibogaine hydrochloride] yielded a CC50 at 24 h of 62.4 µM.
In the case of `CC[N+](C)(C)Cc1ccccc1Br` [Bretylium tosylate], the CC50 at 24 h is reported as over 20 µM.
For `CCCCCC1=CCCC1=O` [2-Pentyl-2-cyclopenten-1-one], the CC50 at 24 h was over 90 µM.
`Cc1ccc2ccccc2n1` [Quinaldine] gave a CC50 at 24 h of over 90 µM.
In the case of `CC(=O)S[C@H](C(=O)N[C@H]1Cc2ccccc2[C@H]2CCC[C@@H](C(=O)O)N2C1=O)C(C)C` [Ilepatril], the CC50 at 24 h is reported as over 90 µM.
In the case of `O=[N+]([O-])c1cccc(I)c1` [1-Iodo-3-nitrobenzene], the CC50 at 24 h is reported as over 90 µM.
Work on `OCc1c[nH]c2ccccc12` [Indole-3-carbinol] yielded a CC50 at 24 h of over 90 µM.
`O=C(c1ccc(O)cc1O)c1ccc(O)cc1O` [2,2',4,4'-Tetrahydroxybenzophenone] showed a CC50 at 24 h of over 90 µM.
For `C=CC(=O)O` [Acrylic acid], the CC50 at 24 h was over 50 µM.
Molecule `c1ccc2ncccc2c1` [Quinoline] has a CC50 at 24 h of over 90 µM.
For `CN(C)[C@@H]1C(O)=C(C(N)=O)C(=O)[C@@]2(O)C(O)=C3C(=O)c4c(O)cccc4[C@@](C)(O)[C@H]3[C@H](O)[C@@H]12` [Oxytetracycline hydrochloride], the CC50 at 24 h was over 90 µM.
For `CCN(CC)C(=O)C(C)Oc1cccc2ccccc12` (stereo not drawn) [Napropamide], the CC50 at 24 h was over 90 µM.
For `O=C(OC1CCCCC1)c1ccccc1C(=O)OC1CCCCC1` [Dicyclohexyl phthalate], the CC50 at 24 h was 40.2 µM.
Molecule `CCOC(=O)c1ccccc1O` [Ethyl salicylate] has a CC50 at 24 h of over 50 µM.
Work on `CC(C)=CCC[C@@](C)(O)[C@H]1CC=C(C)CC1` [Bisabolol] yielded a CC50 at 24 h of over 50 µM.
For `CCCNC(C)C(=O)Nc1c(C)csc1C(=O)OC` (stereo not drawn) [Articaine hydrochloride], the CC50 at 24 h was over 20 µM.
In the case of `CN1C(=O)CC(C)(c2ccccc2)C1=O` (stereo not drawn) [Methsuximide], the CC50 at 24 h is reported as over 50 µM.
In the case of `Cc1cc(Cl)ccc1OCC(=O)O` [MCPA], the CC50 at 24 h is reported as over 90 µM.
`Cc1cccc(C)c1O` [2,6-Dimethylphenol] showed a CC50 at 24 h of over 90 µM.
Molecule `NC(=O)Nc1ccccc1` [1-Phenylurea] has a CC50 at 24 h of over 90 µM.
`CCCCN1C(=O)[C@@H]([C@H](O)C2CCCCC2)NC(=O)C12CCN(Cc1ccc(Oc3ccc(C(=O)O)cc3)cc1)CC2` [Aplaviroc hydrochloride] gave a CC50 at 24 h of 77.3 µM.
Work on `COC(=O)c1ccc(CBr)cc1` [Methyl 4-(bromomethyl)benzoate] yielded a CC50 at 24 h of over 90 µM.
Molecule `CCCCCCCCCCCCCC(=O)OC` [Methyl tetradecanoate] has a CC50 at 24 h of over 90 µM.
`CCCCCCCCCCCCCCCC(=O)O` [Hexadecanoic acid] showed a CC50 at 24 h of over 90 µM.
For `CCOC(=O)[C@H](CCc1ccccc1)N[C@@H](C)C(=O)N1[C@H](C(=O)O)C[C@H]2CCCC[C@@H]21` [Trandolapril], the CC50 at 24 h was over 50 µM.
In the case of `NCc1cccc(CN)c1` [1,3-Benzenedimethanamine], the CC50 at 24 h is reported as over 90 µM.
`CC(C)(C)CC(=O)OCC(=O)[C@@]12OC(C)(C)O[C@@H]1C[C@H]1[C@@H]3CCC4=CC(=O)C=C[C@]4(C)[C@@]3(F)[C@@H](O)C[C@@]12C` [Triamcinolone hexacetonide] showed a CC50 at 24 h of over 50 µM.
Work on `O=C1OC(=O)c2c(Br)c(Br)c(Br)c(Br)c21` [Tetrabromophthalic anhydride] yielded a CC50 at 24 h of over 90 µM.
In the case of `CCN(CC)CCCN(c1ccccc1)C1Cc2ccccc2C1` [Aprindine hydrochloride], the CC50 at 24 h is reported as 2.3 µM.
For `O=C(O)c1cccc(C(=O)O)c1C(=O)O` [1,2,3-Benzenetricarboxylic acid], the CC50 at 24 h was over 90 µM.
`O=C(O)CCC(=O)O` [Butanedioic acid] gave a CC50 at 24 h of over 90 µM.
For `O=Cc1cccc(Br)c1` [3-Bromobenzaldehyde], the CC50 at 24 h was over 90 µM.
With `O=C(NCC1CCCCN1)c1cc(OCC(F)(F)F)ccc1OCC(F)(F)F` (stereo not drawn) [Flecainide acetate] the CC50 at 24 h was 42.2 µM.
`NC(=S)C(N)=S` [Dithiooxamide] gave a CC50 at 24 h of over 90 µM.
For `O=C(O)CNCC(=O)O` [Iminodiacetic acid], the CC50 at 24 h was over 5 µM.
Molecule `O=C(OCCOCCO)c1ccccc1Nc1cccc(C(F)(F)F)c1` [Etofenamate] has a CC50 at 24 h of over 20 µM.
In the case of `CC1COc2c(N3CCN(C)CC3)c(F)cc3c(=O)c(C(=O)O)cn1c23` (stereo not drawn) [Ofloxacin], the CC50 at 24 h is reported as over 50 µM.
For `CCCCOC(=O)/C=C\C(=O)OCCCC` [Dibutyl maleate], the CC50 at 24 h was over 90 µM.
In the case of `c1ccc(SCCSc2ccccc2)cc1` [1,2-Bis(phenylthio)ethane], the CC50 at 24 h is reported as over 90 µM.
`CCN(CCO)CCCC(C)Nc1ccnc2cc(Cl)ccc12` (stereo not drawn) [Hydroxychloroquine sulfate] showed a CC50 at 24 h of over 50 µM.
`Cc1c(C)n(CCN(C)C)c2ccc(C(=O)OCCN(C)C)cc12` [Amindocate] gave a CC50 at 24 h of 34.1 µM.
`O=S(=O)(Oc1ccc(Cl)cc1)c1ccccc1` [Fenson] showed a CC50 at 24 h of over 90 µM.
`CC(=O)O[C@H]1C[C@@H]2CC[C@@H]3[C@H](CC[C@@]4(C)[C@H]3C[C@H]([N+]3(C)CCCCC3)[C@@H]4OC(C)=O)[C@@]2(C)C[C@@H]1N1CCCCC1` [Vecuronium bromide] gave a CC50 at 24 h of over 50 µM.
`CCSC(=O)Cl` gave a CC50 at 24 h of over 100 µM.
Work on `CC1=CC[C@H]2C[C@@H]1C2(C)C` [(-)-alpha-Pinene] yielded a CC50 at 24 h of over 90 µM.
`CCN(CC)CCNC(=O)c1cc(Br)c(N)cc1OC` [Bromopride] gave a CC50 at 24 h of over 50 µM.
`CC[C@@]1(O)C[C@H](O[C@H]2C[C@H](N(C)C)[C@H](O[C@H]3C[C@H](O)[C@H](O[C@H]4CCC(=O)[C@H](C)O4)[C@H](C)O3)[C@H](C)O2)c2c(cc3c(c2O)C(=O)c2c(O)cccc2C3=O)[C@H]1C(=O)OC` [Aclarubicin hydrochloride] showed a CC50 at 24 h of 0.114 µM.
With `c1ccc(Cc2ccccc2)cc1` [Diphenylmethane] the CC50 at 24 h was over 90 µM.
`O=C(O)c1cc(C(=O)O)cc(S(=O)(=O)O)c1` [Sodium 5-sulfoisophthalate] showed a CC50 at 24 h of over 90 µM.
With `C[N+](C)(CCOc1ccccc1)Cc1cccs1` [Dimethyl(2-phenoxyethyl)-2-thenylammonium iodide] the CC50 at 24 h was over 50 µM.
With `CCCCCC[C@@H](O)C/C=C\CCCCCCCC(=O)OCC(O)CO` (stereo partly drawn) [Glyceryl monoricinoleate] the CC50 at 24 h was over 90 µM.
Molecule `CC1=C(C)C(=O)C(C(CCCCCC(=O)O)c2ccccc2)=C(C)C1=O` (racemic) [(+-)-7-(3,5,6-trimethyl-1,4-benzoquinon-2-yl)-7-phenylheptanoic acid] has a CC50 at 24 h of over 50 µM.
`O=c1ccc2cc(O[C@@H]3O[C@H](CO)[C@@H](O)[C@H](O)[C@H]3O)c(O)cc2o1` [Esculin] showed a CC50 at 24 h of over 20 µM.

Same assay, conditions: rat, gh3-tre-luc cells, AC50 (uM) modified / 1000, Tox21_110001=Tox21_112669; viability, 1 nM T3 present, 24 h
Work on `CC(C)CCC(=O)O[C@H]1CC[C@H]2[C@@H]3CCC4=CC(=O)CC[C@]4(C)[C@H]3CC[C@]12C` [Testosterone isocaproate] yielded a CC50 at 24 h of 35.3 µM.

Same assay, conditions: rat, gh3-tre-luc cells, AC50 (uM) modified / 1000, Tox21_110001=Tox21_112754; viability, 1 nM T3 present, 24 h
With `CCC/C=C/C=C/C(=O)O[C@H]1/C(=C/C(=O)OC)C[C@H]2C[C@H]([C@@H](C)O)OC(=O)C[C@H](O)C[C@@H]3C[C@H](OC(C)=O)C(C)(C)[C@](O)(C[C@@H]4C/C(=C/C(=O)OC)C[C@H](/C=C/C(C)(C)[C@]1(O)O2)O4)O3` [Bryostatin 1] the CC50 at 24 h was 9.94 µM.

Same assay, conditions: rat, gh3-tre-luc cells, AC50 (uM) modified / 1000, Tox21_110001=Tox21_113158; viability, 1 nM T3 present, 24 h
Molecule `C[C@]1(O)CC[C@H]2[C@@H]3CCC4=CC(=O)CC[C@]4(C)[C@@]3(F)[C@@H](O)C[C@@]21C` [Fluoxymestrone] has a CC50 at 24 h of over 50 µM.

Same assay, conditions: rat, gh3-tre-luc cells, AC50 (uM) modified / 1000, Tox21_110001=Tox21_113486; viability, 1 nM T3 present, 24 h
For `CCCCCc1cc(O)c2c(c1)OC(C)(C)c1ccc(C)cc1-2` [Cannabinol], the CC50 at 24 h was 13.4 µM.

Same assay, conditions: rat, gh3-tre-luc cells, AC50 (uM) modified / 1000, Tox21_110001=Tox21_200120; viability, 1 nM T3 present, 24 h
`O=Cc1ccc2c(c1)OCO2` [Piperonal] showed a CC50 at 24 h of over 90 µM.

Same assay, conditions: rat, gh3-tre-luc cells, AC50 (uM) modified / 1000, Tox21_110001=Tox21_200854; viability, 1 nM T3 present, 24 h
`C[C@]1(O)CC[C@H]2[C@@H]3CCC4=CC(=O)CC[C@]4(C)[C@@]3(F)[C@@H](O)C[C@@]21C` [Fluoxymestrone] gave a CC50 at 24 h of over 90 µM.

Same assay, conditions: rat, gh3-tre-luc cells, AC50 (uM) modified / 1000, Tox21_110001=Tox21_301359; viability, 1 nM T3 present, 24 h
For `CCOC(=O)c1cn2nc(OP(=S)(OCC)OCC)cc2nc1C` [Pyrazophos], the CC50 at 24 h was over 90 µM.

Same assay, conditions: rat, gh3-tre-luc cells, AC50 (uM) modified / 1000, Tox21_110001=Tox21_302060; viability, 1 nM T3 present, 24 h
Molecule `O=P(O)(O)c1ccccc1` [Phenylphosphonic acid] has a CC50 at 24 h of over 90 µM.
